Results from patent publication US9284303B2, “Benzimidazole cannabinoid agonists bearing a substituted heterocyclic group” (priority 2006, dated 2016).

Legend:
[1] = biological target: T1, human CB2 (hCB2) receptor (Homo sapiens, UniProt P34972); experiment: Inhibition of forskolin-activated cAMP production upon activation of hCB2 (HTRF), CHO-K1 cells; assay type: cell-based; details: for ratio CB2 agonism over CB1 agonism: Table C-1, selectivity hCB2 over hCB1; for EC50: hCB2-CHO-K1 cells, forskolin-activated cAMP, pEC50=-log(EC50), read-out: CB2 pEC50 (converted); for ratio CB2 over CB1 agonism: Table C-3, comparison of art compounds A to E with compounds of the invention
T1 construct: expressed in transfected cells; host or cells: CHO-K1

[2] = biological target: T2, human CB1 (hCB1) receptor (Homo sapiens, UniProt P21554); experiment: Inhibition of forskolin-activated cAMP production upon activation of hCB1 (HTRF), CHO-K1 cells; assay type: cell-based; details: forskolin-activated cAMP, pEC50=-log(EC50); for EC50: CB1 pEC50, hCB1-CHO-K1 cells; for CB1 pEC50: hCB1-CHO-K1 cells
T2 construct: expressed in transfected cells; host or cells: CHO-K1
Summary of the method: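 CHO-K1 cells stably expressing hCB1 (20,000/well) were in HBSS stimulation buffer (1 mM IBMX, 10 mM MgCl2, 0.1% BSA, pH 7.4), with 6 μM forskolin in the compound buffer, 30 min at room temperature in the dark. cAMP was read as HTRF 665/620 ratio, normalized to DMSO and CP55490. Outputs were pEC50 and inhibition at 10 μM relative to CP55490.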

T2 sequence (P21554 whole entry): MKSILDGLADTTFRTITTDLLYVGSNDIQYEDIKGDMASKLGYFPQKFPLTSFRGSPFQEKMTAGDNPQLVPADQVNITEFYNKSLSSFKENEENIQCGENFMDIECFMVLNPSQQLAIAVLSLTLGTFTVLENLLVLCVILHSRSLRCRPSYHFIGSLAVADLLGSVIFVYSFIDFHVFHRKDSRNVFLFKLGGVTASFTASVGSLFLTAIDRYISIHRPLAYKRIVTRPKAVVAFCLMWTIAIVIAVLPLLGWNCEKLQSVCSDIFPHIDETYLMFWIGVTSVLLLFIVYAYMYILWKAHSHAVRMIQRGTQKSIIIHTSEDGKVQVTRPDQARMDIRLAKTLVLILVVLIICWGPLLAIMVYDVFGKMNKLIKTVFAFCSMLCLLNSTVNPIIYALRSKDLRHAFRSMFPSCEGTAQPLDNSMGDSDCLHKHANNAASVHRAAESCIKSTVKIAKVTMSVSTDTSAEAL
T1 sequence (P34972 whole entry): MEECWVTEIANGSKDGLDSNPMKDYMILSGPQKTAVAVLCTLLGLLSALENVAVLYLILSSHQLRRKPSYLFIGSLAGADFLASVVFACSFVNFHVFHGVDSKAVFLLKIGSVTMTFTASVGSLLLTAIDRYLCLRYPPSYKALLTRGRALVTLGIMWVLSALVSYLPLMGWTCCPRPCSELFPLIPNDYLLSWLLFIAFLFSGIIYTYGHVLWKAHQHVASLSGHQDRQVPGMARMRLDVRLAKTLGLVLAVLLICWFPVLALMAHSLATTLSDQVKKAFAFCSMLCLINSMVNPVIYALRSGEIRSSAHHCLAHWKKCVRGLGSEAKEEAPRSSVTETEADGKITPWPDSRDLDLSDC

Compound | ratio CB2 agonism over CB1 agonism [1] | EC50 [1] [nM] | EC50 [2] [nM] | melting point [°C] | CB1 pEC50 [2] | ratio CB2 over CB1 agonism [1]
COCCCc1cc(S(=O)(=O)c2ccc3c(c2)nc(C(C)(C)C)n3CC2CCOCC2)ccn1 [Co. No. 154] | >9016 | 1.12 | > 10000 | 143.4 |  | 
COCCOc1cc(S(=O)(=O)c2ccc3c(c2)nc(C(C)(C)C)n3CC2CCOCC2)ccn1 [Co. No. 150] | 638 | 1.26 |  | 142.9 | 6.09 | 
CC(=O)Nc1ccc(S(=O)(=O)c2ccc3c(c2)nc(C(C)(C)C)n3CC2CCOCC2)nn1 [Co. No. 101] | 58 | 2.51 | 148 | 290.1 |  | 
COC(C)c1ccc(S(=O)(=O)c2ccc3c(c2)nc(C(C)(C)C)n3CC2CCOCC2)nc1 (stereo not shown) [Co. No. 49] | >2138 | 4.68 | > 10000 | 140 |  | 
CC(C)(C)c1nc2cc(S(=O)(=O)c3ccnc(N)c3)ccc2n1CC1CCOCC1 [Co. No. 19] | 638 | 1.12 | 724 | 235.9 |  | 638
Cn1ccc(S(=O)(=O)c2ccc3c(c2)nc(C(C)(C)C)n3CC2CCOCC2)cc1=O [Co. No. 69] | 398 | 1.74 | 692 | 216 |  | 
COCCCOc1cc(S(=O)(=O)c2ccc3c(c2)nc(C(C)(C)C)n3CC2CCOCC2)ccn1 [Co. No. 151] | 8035 | 0.479 |  | 106.5 | 5.41 | 
COC(=O)c1cc(S(=O)(=O)c2ccc3c(c2)nc(C(C)(C)C)n3CC2CCOCC2)c[nH]1 [Co. No. 75] | 2291 | 4.17 | 9550 | 231 |  | 
CC(C)(C)c1nc2cc(S(=O)(=O)c3nccc(C(N)=O)n3)ccc2n1CC1CCOCC1 [Co. No. 29] | 417 | 3.16 | 1320 | 220 to 222 |  | 
CC(C)(C)c1nc2cc(S(=O)(=O)c3ccc(C#N)o3)ccc2n1CC1CCOCC1 [Co. No. 60] | 638 | 1.05 | 661 | 145.5 to 145.7 |  | 
CC(C)(C)c1nc2cc(S(=O)(=O)c3ccc(S(C)(=O)=O)cn3)ccc2n1CC1CCOCC1 [Co. No. 67] | >2344 | 4.27 | > 10000 | 183 |  | 
CC(C)(C)c1nc2cc(S(=O)(=O)c3ccnc(O)c3)ccc2n1CC1CCOCC1 [Co. No. 8] | 1514 | 3.09 | 4680 | > 300 |  | 1514
CC(C)(C)c1nc2cc(S(=O)(=O)c3cc[n+]([O-])cc3Br)ccc2n1CC1CCOCC1 [Co. No. 87] |  | 2.14 | 2290 | 205.3 |  | 
CC(C)(C)c1nc2cc(S(=O)(=O)c3ccnc(Cl)c3)ccc2n1CC1CCOCC1 [Co. No. 18] | 933 | 0.676 | 631 | 201 |  | 
CC(C)(C)c1nc2cc(S(=O)(=O)c3cc(Cl)nc(Cl)c3)ccc2n1CC1CCOCC1 [Co. No. 71] | >13490 | 0.741 | > 10000 | 198 |  | 
COc1ccc(S(=O)(=O)c2ccc3c(c2)nc(C(C)(C)C)n3CC2CCOCC2)nn1 [Co. No. 11] | 48 | 1.26 | 60.3 | 174 to 180 |  | 
CC(=O)Nc1cc(S(=O)(=O)c2ccc3c(c2)nc(C(C)(C)C)n3CC2CCOCC2)ccn1 [Co. No. 22] | 1758 | 1.12 | 2000 | 262.3 |  | 1758
